Laboratory results as given in patent US9045445B2, “Glycine transporter-1 inhibitors, methods of making them, and uses thereof” (Albany Molecular Research, Inc., priority 2010, dated 2015).
Structures can show the parent of a compound that is named as a salt.

Key:
[1] = biological target: T1, glycine transporter-2 (GlyT-2) (Homo sapiens, UniProt Q9Y345); assay: [14C]glycine uptake assay in HEK-GlyT-2 transfected cells; type: cell-based; conditions: HEK-GlyT-2 cells
T1 construct: expressed in transfected cells
T1 sequence (Q9Y345 1-797): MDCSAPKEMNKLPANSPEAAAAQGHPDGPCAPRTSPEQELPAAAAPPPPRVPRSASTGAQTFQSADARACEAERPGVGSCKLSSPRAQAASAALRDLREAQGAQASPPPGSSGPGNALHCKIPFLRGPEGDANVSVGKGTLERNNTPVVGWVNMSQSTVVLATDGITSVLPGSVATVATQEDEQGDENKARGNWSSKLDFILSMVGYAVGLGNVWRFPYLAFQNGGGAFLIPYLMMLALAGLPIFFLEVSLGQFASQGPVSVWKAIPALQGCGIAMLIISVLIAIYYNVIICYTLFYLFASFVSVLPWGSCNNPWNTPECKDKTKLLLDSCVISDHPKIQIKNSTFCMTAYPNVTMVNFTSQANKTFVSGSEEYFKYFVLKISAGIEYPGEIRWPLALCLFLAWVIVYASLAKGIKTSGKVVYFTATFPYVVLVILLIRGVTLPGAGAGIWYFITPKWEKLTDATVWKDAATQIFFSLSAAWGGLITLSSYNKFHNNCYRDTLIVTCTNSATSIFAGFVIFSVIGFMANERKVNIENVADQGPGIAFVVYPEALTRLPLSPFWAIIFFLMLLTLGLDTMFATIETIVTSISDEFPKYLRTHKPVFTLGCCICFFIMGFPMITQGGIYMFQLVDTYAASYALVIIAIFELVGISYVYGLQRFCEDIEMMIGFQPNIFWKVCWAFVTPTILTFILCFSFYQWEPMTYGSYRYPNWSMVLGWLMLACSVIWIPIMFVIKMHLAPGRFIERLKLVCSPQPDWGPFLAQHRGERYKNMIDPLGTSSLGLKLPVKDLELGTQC

[2] = biological target: T2, glycine transporter-1 (GlyT-1) (Homo sapiens, UniProt P48067); assay: [14C]glycine uptake assay in JAR cells endogenously expressing GlyT-1 (scintillation proximity); type: cell-based; conditions: JAR cells, [14C]glycine 5 μM, 3 hour incubation; read-out: GlyT-1 IC50
T2 construct: JAR cells (ATCC#HTB-144), which endogenously express GlyT-1; host or cells: JAR human choriocarcinoma cells
T2 sequence (P48067 1-706): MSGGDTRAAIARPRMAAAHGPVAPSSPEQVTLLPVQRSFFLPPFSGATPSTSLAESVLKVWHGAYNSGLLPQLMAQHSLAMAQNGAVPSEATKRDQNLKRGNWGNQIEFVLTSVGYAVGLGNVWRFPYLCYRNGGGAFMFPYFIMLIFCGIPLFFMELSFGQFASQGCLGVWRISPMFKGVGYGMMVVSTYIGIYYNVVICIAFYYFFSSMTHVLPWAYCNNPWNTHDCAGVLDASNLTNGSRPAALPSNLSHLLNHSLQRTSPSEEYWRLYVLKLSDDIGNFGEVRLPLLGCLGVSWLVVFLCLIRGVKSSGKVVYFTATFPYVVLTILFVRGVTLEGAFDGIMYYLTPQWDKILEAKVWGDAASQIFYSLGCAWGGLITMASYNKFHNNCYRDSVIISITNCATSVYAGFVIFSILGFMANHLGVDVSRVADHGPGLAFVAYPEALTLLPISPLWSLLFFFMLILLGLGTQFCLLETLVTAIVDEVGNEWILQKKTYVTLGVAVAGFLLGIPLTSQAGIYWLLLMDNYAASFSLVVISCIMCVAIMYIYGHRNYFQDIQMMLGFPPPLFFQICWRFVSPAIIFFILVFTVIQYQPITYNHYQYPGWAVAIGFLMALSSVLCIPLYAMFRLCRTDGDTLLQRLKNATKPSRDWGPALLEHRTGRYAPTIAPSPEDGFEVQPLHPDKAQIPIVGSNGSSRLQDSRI
Outline: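 IC50 comes from a four-parameter fit of nine-point, duplicate curves measuring inhibition of 5 μM [14C]glycine uptake, read by scintillation proximity after 3 h at 37 °C. Cells are human JAR, which express GlyT-1 endogenously, given 10 min compound pre-treatment in pH 7.4 buffer with 5 mM alanine and 0.75% DMSO.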

| Compound | IC50 [1] | IC50 [2] |
| --- | --- | --- |
| CCS(=O)(=O)N1CCN(C2(CNC(=O)c3ccc(C(F)(F)F)cc3Cl)CCC(F)(F)CC2)CC1 [compound 203, 2-Chloro-N-((1-(4-(ethylsulfonyl)piperazin-1-yl)-4,4-difluorocyclohexyl)methyl)-4-(trifluoromethyl) benzamide Hydrochloride] | > 75 µM | 94 nM |
| CCS(=O)(=O)N1CCN(C2(CNC(=O)c3c(Cl)cc(C(F)(F)F)cc3Cl)CCC(F)(F)CC2)CC1 [compound 207, 2,6-Dichloro-N-((1-(4-(ethylsulfonyl)piperazin-1-yl)-4,4-difluoro-cyclohexyl)methyl)-4-(trifluoromethyl) benzamide Hydrochloride] | > 75 µM | 64 nM |
| CC(NC(=O)c1ccc(F)cc1Cl)C1(N2CCN(S(=O)(=O)c3cn(C)nn3)CC2)CCC(F)(F)CC1 (centres unmarked) [compound 220, 2-Chloro-N-(1-(4,4-difluoro-1-(4-(1-methyl-1H-1,2,3-triazol-4-ylsulfonyl)piperazin-1-yl)cyclohexyl)ethyl)-4-fluorobenzamide Hydrochloride] | > 75 µM | 83 nM |
| CC(NC(=O)c1ccc(C(F)(F)F)cc1Cl)C1(N2CCN(S(=O)(=O)c3cn(C)nn3)CC2)CCC(F)(F)CC1 (centres unmarked) [compound 223, 2-Chloro-N-(1-(4,4-difluoro-1-(4-(1-methyl-1H-1,2,3-triazol-4-ylsulfonyl)piperazin-1-yl)cyclohexyl)ethyl)-4-(trifluoromethyl)benzamide Hydrochloride] | > 75 µM | 33 nM |
| CC(NC(=O)c1ccc(C(F)(F)F)cc1C(F)(F)F)C1(N2CCN(S(=O)(=O)c3cn(C)nn3)CC2)CCC(F)(F)CC1 (centres unmarked) [compound 225, N-(1-(4,4-Difluoro-1-(4-(1-methyl-1H-1,2,3-triazol-4-ylsulfonyl)piperazin-1-yl)cyclohexyl)ethyl)-2,4-bis(trifluoromethyl) benzamide Hydrochloride] | > 75 µM | 28 nM |
| Cn1cc(S(=O)(=O)N2CCN(C3(CNC(=O)c4ccc(Cl)cc4Cl)CCC(F)(F)CC3)CC2)nn1 [compound 228, 2,4-Dichloro-N-((4,4-difluoro-1-(4-(1-methyl-1H-l,2,3-triazol-4-ylsulfonyl)piperazin-1-yl)cyclohexyl)methyl) benzamide Hydrochloride] | > 75 µM | 1 nM |
| Cn1cc(S(=O)(=O)N2CCN(C3(CNC(=O)c4c(F)cc(Cl)cc4F)CCC(F)(F)CC3)CC2)nn1 [compound 230, 4-Chloro-N-((4,4-difluoro-1-(4-(1-methyl-1H-1,2,3-triazol-4-ylsulfonyl)piperazin-1-yl)cyclohexyl)methyl)-2,6-difluorobenzamide Hydrochloride] | > 75 µM | 3 nM |
| Cn1cc(S(=O)(=O)N2CCN(C3(CNC(=O)c4cc(F)c(Cl)cc4Cl)CCC(F)(F)CC3)CC2)nn1 [compound 231, 2,4-Dichloro-N-((4,4-difluoro-1-(4-(1-methyl-1H-1,2,3-triazol-4-ylsulfonyl)piperazin-1-yl)cyclohexyl)methyl)-5-fluorobenzamide Hydrochloride] | > 75 µM | 1 nM |
| Cn1cc(S(=O)(=O)N2CCN(C3(CNC(=O)c4ccc(C(F)(F)F)cc4F)CCC(F)(F)CC3)CC2)nn1 [compound 232, N-((4,4-Difluoro-1-(4-(1-methyl-1H-1,2,3-triazol-4-ylsulfonyl)piperazin-1-yl)cyclohexyl)methyl)-2-fluoro-4-(trifluoromethyl)benzamide Hydrochloride] | > 75 µM | 6 nM |
| Cn1cc(S(=O)(=O)N2CCN(C3(CNC(=O)c4ccc(F)cc4C(F)(F)F)CCC(F)(F)CC3)CC2)nn1 [compound 233, N-((4,4-Difluoro-1-(4-(1-methyl-1H-1,2,3-triazol-4-ylsulfonyl)piperazin-1-yl)cyclohexyl)methyl)-4-fluoro-2-(trifluoromethyl)benzamide Hydrochloride] | > 75 µM | 1 nM |
| Cn1cc(S(=O)(=O)N2CCN(C3(CNC(=O)c4c(F)cc(F)cc4F)CCC(F)(F)CC3)CC2)nn1 [compound 234, N-((4,4-Difluoro-1-(4-(1-methyl-1H-1,2,3-triazol-4-ylsulfonyl)piperazin-1-yl)cyclohexyl)methyl)-2,4,6-trifluorobenzamide Hydrochloride] | > 75 µM | 4 nM |
| Cn1cc(S(=O)(=O)N2CCN(C3(CNC(=O)c4cc(F)c(F)cc4Cl)CCC(F)(F)CC3)CC2)nn1 [compound 235, 2-Chloro-N-((4,4-difluoro-1-(4-(1-methyl-1H-1,2,3-triazol-4-ylsulfonyl)piperazin-1-yl)cyclohexyl)methyl)-4,5-difluorobenzamide Hydrochloride] | > 75 µM | 3 nM |
| O=C(NCC1(N2CCN(S(=O)(=O)c3cn(C(F)F)nn3)CC2)CCC(F)(F)CC1)c1ccc(C(F)(F)F)cc1Cl [compound 236, 2-Chloro-N-((1-(4-(1-(difluoromethyl)-1H-1,2,3-triazol-4-ylsulfonyl)piperazin-1-yl)-4,4-difluorocyclohexyl)methyl)-4-(trifluoromethyl) benzamide Hydrochloride] | > 75 µM | 41 nM |
| CCCS(=O)(=O)N1CCN(C2(CNC(=O)c3ccc(Cl)cc3C(F)(F)F)CCC(F)(F)CC2)CC1 [compound 245, 4-Chloro-N-((4,4-difluoro-1-(4-(propylsulfonyl)piperazin-1-yl)cyclohexyl)methyl)-2-(trifluoromethyl)benzamide Hydrochloride] | > 75 µM | 18 nM |
| CCCS(=O)(=O)N1CCN(C2(CNC(=O)c3ccc(Cl)cc3C3CC3)CCC(F)(F)CC2)CC1 [compound 253, 4-Chloro-2-cyclopropyl-N-((4,4-difluoro-1-(4-(propylsulfonyl)piperazin-1-yl)cyclohexyl)methyl) benzamide Hydrochloride] | > 75 µM | 21 nM |
| CCCS(=O)(=O)N1CCN(C2(CNC(=O)c3c(Cl)cc(C(F)(F)F)cc3C(F)(F)F)CCC(F)(F)CC2)CC1 [compound 254, 2-Chloro-N-((4,4-difluoro-1-(4-(propylsulfonyl)piperazin-1-yl)cyclohexyl)methyl)-4,6-bis(trifluoromethyl) benzamide Hydrochloride] | > 75 µM | 7 nM |
| CCCS(=O)(=O)N1CCN(C2(CNC(=O)c3ccc(C(F)(F)F)cc3Cl)CCC(F)(F)CC2)CC1C (centres unmarked) [compound 256, 2-Chloro-N-((4,4-difluoro-1-(3-methyl-4-(propylsulfonyl)piperazin-1-yl)cyclohexyl)methyl)-4-(trifluoromethyl) benzamide Hydrochloride] | > 75 µM | 133 nM |
| CCCS(=O)(=O)N1CCN(C2(CNC(=O)c3ccc(C(F)(F)F)cc3Cl)CCC(F)(F)CC2)C(C)C1 (centres unmarked) [compound 257, 2-Chloro-N-((4,4-difluoro-1-(2-methyl-4-(propylsulfonyl)piperazin-1-yl)cyclohexyl)methyl)-4-(trifluoromethyl) benzamide Hydrochloride] | > 75 µM | 18 nM |
| CCCS(=O)(=O)N1CCN(C2(CNC(=O)c3c(Cl)cc(C(F)(F)F)cc3Cl)CCC(F)(F)CC2)CC1 [compound 258, 2,6-Dichloro-N-((4,4-difluoro-1-(4-(propylsulfonyl)piperazin-1-yl)cyclohexyl)methyl)-4-(trifluoromethyl) benzamide Hydrochloride] | > 75 µM | 9 nM |
